# Assay results from patent US20240269139A1, “COMPOUNDS FOR TARGETED PROTEIN DEGRADATION OF KINASES” (DANA-FARBER CANCER INSTITUTE, INC., priority 2020, published 2024).
# Read-outs that look alike come from different tables or passages of the source.
# Legend:
# Type in all cases: cell-based
# [1] = molecular target: protein kinases (human kinome) (Homo sapiens, UniProt P51451); conditions: for logFC of BLK: BLK P51451; for logFC of BLK (P51451): down
# Description: (§1) Although development of targeted protein degraders requires a POI binder, among already-liganded proteins such as kinases, it was hypothesized that different targets would have a different propensity for current approaches to degrader-mediated destruction, which was termed ‘degradability’. […] It was rationalized that the probability of identifying the same kinase as a false positive in multiple treatments is low, therefore this analysis served to also assess the robustness of our data and subsequent interpretations. […] Overall, 62 protein kinases were degraded in more than 10 independent treatments, and remarkably, 9 of these (CDK4, AURKA, FER, WEE1, BLK. LIMK2, CDK6, GAK, LIMK1) were each degraded in at least 40 of the 154 independent treatments, emphasizing their predisposition to induced degradation (FIG. 1G; Appendix I).
# (§2) Next, the frequency of degradation assessment was corrected for over-representation of molecules in the full dataset by omitting replicate profiling of compounds under different experimental conditions, to remove any bias. […] Unsurprisingly, the top degradable kinases mirror those from the previous analysis (CDK4, AURKA, FER, WEE1, BLK), confirming that in sufficiently large datasets, even with over-representation of certain molecules, frequency of degradation is a good measure of general tractability.
# [2] = molecular target: protein kinases (human kinome) (Homo sapiens, UniProt Q00534)
# Description: as §1, §2
# [3] = molecular target: protein kinases (human kinome) (Homo sapiens, UniProt P53671); conditions: experiment wp016
# Description: as §1, §2
# [4] = molecular target: protein kinases (human kinome) (Homo sapiens, UniProt P16591)
# Description: as §1, §2
# [5] = test system: protein kinases (human kinome); conditions: for logFC: degrader vs DMSO, down; for logFC LCK: accession P06239-3; for logFC LCK / logFC LCK (P06239-3): direction of change down
# Description: as §1, §2
# [6] = molecular target: protein kinases (human kinome) (Homo sapiens, UniProt O94804); conditions: STK10 (O94804), experiment wp016
# Description: as §1, §2
# [7] = molecular target: protein kinases (human kinome) (Homo sapiens, UniProt P11802); conditions: experiment wp016
# Description: as §1, §2
# [8] = molecular target: protein kinases (human kinome) (Homo sapiens, UniProt Q2M2I8); conditions: experiment wp016
# Description: as §1, §2
# [9] = molecular target: protein kinases (human kinome) (Homo sapiens, UniProt P50613)
# Description: as §1, §2
# [10] = molecular target: protein kinases (human kinome) (Homo sapiens, UniProt Q9NSY1); conditions: BMP2K Q9NSY1; experiment wp016
# Description: as §1, §2
# [11] = molecular target: protein kinases (human kinome) (Homo sapiens, UniProt Q00537); conditions: experiment wp016
# Description: as §1, §2
# [12] = molecular target: protein kinases (human kinome) (Homo sapiens, UniProt Q14289)
# Description: as §1, §2
# [13] = molecular target: protein kinases (human kinome) (Homo sapiens, UniProt Q14004); conditions: experiment wp016
# Description: as §1, §2
# [14] = molecular target: T1, protein kinases (human kinome) (Homo sapiens, UniProt Q08881); conditions: experiment wp016
# T1 sequence (Q08881 1-620): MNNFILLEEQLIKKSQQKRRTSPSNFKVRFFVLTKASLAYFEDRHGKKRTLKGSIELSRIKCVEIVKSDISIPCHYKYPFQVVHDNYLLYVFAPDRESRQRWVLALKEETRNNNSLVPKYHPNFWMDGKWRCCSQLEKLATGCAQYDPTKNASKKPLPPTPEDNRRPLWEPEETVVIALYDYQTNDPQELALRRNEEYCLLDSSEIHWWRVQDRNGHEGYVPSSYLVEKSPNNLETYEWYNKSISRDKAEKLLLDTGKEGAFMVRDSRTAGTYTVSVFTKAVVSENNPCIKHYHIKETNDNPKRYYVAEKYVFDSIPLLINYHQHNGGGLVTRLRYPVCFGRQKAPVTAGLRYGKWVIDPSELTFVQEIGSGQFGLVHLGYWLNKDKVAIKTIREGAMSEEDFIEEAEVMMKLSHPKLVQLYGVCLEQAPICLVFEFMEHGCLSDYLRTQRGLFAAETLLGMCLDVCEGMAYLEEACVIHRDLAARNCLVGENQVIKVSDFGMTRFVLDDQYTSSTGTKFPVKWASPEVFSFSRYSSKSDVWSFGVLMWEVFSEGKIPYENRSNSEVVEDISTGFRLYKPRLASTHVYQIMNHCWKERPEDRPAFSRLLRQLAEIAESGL
# Description: as §1, §2
# [15] = molecular target: T2, protein kinases (human kinome) (Homo sapiens, UniProt O14965); conditions: experiment wp016
# T2 sequence (O14965 1-403): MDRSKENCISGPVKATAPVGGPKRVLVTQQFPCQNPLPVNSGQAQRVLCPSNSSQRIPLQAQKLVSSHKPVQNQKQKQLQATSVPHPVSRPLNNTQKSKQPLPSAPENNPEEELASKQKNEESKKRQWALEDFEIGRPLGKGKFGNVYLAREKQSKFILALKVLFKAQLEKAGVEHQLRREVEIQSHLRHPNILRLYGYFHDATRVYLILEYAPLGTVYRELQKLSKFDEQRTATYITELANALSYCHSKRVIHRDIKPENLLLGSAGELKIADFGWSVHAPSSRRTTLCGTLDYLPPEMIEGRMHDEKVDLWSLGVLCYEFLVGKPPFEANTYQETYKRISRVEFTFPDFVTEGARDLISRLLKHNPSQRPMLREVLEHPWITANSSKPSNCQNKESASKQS
# Description: as §1, §2
# [16] = molecular target: protein kinases (human kinome) (Homo sapiens, UniProt Q00535); conditions: experiment wp016
# Description: as §1, §2
# [17] = molecular target: protein kinases (human kinome) (Homo sapiens, UniProt P24941); conditions: experiment wp016
# Description: as §1, §2
# [18] = molecular target: protein kinases (human kinome) (Homo sapiens, UniProt P30291); conditions: experiment wp016
# Description: as §1, §2
# [19] = molecular target: protein kinases (human kinome) (Homo sapiens, UniProt Q9NYV4); conditions: experiment wp016
# Description: as §1, §2
# [20] = molecular target: T3, protein kinases (human kinome) (Homo sapiens, UniProt P42680); conditions: TEC (P42680), experiment wp047
# T3 sequence (P42680 1-631): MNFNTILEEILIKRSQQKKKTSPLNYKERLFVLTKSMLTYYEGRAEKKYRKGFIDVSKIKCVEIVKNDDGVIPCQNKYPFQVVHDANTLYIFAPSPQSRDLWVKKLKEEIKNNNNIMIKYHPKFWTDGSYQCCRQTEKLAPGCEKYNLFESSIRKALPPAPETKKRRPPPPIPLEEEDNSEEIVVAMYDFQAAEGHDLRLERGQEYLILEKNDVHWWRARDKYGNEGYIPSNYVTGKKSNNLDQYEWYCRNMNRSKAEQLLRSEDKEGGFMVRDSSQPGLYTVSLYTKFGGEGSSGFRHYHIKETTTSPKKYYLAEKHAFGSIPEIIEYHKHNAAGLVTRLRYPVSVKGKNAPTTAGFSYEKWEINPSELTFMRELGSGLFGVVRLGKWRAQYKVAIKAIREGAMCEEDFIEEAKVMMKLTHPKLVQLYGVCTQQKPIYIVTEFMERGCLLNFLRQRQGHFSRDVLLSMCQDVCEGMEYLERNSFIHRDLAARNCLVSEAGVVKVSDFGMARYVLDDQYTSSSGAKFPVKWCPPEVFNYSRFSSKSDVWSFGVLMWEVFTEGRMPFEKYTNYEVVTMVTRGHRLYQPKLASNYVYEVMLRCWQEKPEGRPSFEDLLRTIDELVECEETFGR
# Description: as §1, §2
# [21] = molecular target: protein kinases (human kinome) (Homo sapiens, UniProt P41240); conditions: experiment wp047
# Description: as §1, §2
# protein kinases (human kinome) (Homo sapiens, UniProt P51451), sequence (P51451 whole entry): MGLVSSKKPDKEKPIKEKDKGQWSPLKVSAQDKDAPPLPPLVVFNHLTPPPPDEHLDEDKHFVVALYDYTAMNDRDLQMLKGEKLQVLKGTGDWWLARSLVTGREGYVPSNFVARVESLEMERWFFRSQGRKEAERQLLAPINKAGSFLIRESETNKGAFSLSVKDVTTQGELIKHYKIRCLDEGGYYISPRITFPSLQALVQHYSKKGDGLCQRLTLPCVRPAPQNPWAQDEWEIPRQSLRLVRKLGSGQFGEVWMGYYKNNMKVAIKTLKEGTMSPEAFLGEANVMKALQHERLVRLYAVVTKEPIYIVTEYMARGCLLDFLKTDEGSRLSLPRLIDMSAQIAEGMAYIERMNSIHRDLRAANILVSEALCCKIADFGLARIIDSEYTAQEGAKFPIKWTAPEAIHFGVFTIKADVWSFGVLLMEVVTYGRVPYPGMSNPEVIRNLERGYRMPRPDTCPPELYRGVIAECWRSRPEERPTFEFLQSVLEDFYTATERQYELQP
# protein kinases (human kinome) (Homo sapiens, UniProt P11802), sequence (P11802 whole entry): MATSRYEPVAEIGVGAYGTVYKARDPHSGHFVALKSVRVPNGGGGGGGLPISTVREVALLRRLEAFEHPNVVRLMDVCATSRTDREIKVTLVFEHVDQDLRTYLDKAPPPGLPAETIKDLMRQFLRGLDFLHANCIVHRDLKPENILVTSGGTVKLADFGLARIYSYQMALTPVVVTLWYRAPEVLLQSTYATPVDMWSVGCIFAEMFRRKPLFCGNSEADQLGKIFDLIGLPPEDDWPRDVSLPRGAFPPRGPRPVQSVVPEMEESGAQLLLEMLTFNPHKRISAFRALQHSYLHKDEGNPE
# protein kinases (human kinome) (Homo sapiens, UniProt Q14289), sequence (Q14289 whole entry): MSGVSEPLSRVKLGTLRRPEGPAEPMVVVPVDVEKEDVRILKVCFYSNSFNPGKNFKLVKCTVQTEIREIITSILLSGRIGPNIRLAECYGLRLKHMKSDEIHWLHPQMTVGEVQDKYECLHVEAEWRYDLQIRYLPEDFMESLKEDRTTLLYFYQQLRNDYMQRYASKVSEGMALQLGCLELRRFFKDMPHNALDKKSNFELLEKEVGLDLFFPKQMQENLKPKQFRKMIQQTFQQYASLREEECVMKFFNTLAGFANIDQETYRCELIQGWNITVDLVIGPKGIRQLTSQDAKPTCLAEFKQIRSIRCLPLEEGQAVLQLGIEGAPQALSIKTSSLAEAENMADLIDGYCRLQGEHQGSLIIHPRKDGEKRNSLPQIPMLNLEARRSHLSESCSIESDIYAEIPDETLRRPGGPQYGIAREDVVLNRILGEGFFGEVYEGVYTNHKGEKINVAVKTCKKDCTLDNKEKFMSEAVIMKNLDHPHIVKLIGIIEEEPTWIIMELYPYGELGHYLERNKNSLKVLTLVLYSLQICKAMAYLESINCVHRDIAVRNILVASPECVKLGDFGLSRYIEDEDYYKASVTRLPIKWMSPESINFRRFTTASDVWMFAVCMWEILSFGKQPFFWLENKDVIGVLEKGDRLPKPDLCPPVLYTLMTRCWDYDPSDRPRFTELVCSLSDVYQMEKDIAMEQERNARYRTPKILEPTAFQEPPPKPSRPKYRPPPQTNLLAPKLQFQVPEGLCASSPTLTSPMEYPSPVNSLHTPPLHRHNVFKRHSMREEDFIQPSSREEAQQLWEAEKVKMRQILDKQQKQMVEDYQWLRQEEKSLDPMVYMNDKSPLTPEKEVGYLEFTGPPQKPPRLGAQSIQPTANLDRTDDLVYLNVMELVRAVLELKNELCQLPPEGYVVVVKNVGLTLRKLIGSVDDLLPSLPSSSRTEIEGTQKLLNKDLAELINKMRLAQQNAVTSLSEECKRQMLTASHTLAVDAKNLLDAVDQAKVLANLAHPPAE
# protein kinases (human kinome) (Homo sapiens, UniProt Q9NSY1), sequence (Q9NSY1 whole entry): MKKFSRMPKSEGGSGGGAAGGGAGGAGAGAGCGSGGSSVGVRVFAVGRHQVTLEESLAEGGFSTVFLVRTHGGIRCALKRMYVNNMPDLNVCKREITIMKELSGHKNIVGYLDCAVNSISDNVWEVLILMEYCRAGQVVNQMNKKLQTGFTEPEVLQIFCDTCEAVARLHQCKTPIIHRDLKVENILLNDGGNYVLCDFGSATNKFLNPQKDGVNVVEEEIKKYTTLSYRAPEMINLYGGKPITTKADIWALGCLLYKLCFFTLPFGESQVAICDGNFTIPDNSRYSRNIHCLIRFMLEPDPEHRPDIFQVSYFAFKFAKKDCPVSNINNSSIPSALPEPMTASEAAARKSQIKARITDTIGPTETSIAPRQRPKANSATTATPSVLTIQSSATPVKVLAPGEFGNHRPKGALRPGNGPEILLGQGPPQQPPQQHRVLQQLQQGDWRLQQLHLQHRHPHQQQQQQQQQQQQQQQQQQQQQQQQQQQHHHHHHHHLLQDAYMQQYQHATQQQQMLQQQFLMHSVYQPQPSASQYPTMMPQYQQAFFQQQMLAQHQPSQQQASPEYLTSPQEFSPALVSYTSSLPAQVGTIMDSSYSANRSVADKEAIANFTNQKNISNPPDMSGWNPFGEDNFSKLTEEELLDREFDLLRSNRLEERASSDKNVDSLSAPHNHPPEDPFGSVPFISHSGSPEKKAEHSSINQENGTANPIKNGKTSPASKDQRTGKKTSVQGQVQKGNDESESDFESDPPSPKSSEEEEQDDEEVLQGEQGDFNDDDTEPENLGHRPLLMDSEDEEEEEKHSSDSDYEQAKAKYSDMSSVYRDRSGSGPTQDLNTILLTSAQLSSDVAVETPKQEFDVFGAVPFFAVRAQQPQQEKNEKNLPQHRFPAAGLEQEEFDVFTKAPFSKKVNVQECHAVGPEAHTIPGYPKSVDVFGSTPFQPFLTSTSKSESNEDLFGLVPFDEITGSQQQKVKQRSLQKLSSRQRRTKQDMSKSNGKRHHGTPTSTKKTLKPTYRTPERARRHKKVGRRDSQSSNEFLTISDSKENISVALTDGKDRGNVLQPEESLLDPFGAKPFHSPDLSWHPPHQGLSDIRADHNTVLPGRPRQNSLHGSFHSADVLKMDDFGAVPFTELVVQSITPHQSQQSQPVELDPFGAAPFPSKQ
# protein kinases (human kinome) (Homo sapiens, UniProt Q2M2I8), sequence (Q2M2I8 whole entry): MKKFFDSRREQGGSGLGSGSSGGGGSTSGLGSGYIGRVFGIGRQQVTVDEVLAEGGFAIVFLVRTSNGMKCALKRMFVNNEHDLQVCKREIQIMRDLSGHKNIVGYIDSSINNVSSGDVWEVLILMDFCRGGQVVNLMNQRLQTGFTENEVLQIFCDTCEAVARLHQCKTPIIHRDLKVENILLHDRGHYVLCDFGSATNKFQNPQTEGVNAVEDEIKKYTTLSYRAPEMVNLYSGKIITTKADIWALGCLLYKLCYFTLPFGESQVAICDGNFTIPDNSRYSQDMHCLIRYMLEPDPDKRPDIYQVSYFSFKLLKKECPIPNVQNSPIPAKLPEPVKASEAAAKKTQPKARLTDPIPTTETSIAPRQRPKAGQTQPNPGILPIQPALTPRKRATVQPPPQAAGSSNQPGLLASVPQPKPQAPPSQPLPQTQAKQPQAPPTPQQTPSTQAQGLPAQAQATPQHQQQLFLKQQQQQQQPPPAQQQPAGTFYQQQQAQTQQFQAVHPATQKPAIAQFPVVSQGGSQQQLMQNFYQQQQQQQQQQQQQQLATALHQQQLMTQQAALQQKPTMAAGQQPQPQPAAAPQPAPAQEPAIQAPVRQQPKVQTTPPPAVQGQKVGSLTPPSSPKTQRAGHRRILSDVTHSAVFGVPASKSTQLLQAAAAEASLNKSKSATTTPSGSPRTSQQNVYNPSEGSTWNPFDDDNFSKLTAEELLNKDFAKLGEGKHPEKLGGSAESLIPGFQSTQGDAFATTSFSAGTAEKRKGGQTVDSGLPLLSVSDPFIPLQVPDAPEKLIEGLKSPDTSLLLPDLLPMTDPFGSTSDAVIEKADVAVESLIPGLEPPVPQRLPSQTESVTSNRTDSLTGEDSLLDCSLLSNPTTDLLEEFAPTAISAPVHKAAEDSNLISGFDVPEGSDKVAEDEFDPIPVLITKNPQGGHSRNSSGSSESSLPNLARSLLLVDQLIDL
# protein kinases (human kinome) (Homo sapiens, UniProt Q00535), sequence (Q00535 whole entry): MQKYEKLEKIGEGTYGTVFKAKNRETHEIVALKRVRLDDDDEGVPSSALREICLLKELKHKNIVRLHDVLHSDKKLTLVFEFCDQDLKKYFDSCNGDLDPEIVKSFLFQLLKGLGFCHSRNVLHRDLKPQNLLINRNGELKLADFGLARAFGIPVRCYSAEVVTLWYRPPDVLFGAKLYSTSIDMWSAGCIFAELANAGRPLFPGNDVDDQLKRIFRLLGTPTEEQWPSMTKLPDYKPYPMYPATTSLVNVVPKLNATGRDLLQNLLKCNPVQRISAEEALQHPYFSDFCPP
# protein kinases (human kinome) (Homo sapiens, UniProt P53671), sequence (P53671 whole entry): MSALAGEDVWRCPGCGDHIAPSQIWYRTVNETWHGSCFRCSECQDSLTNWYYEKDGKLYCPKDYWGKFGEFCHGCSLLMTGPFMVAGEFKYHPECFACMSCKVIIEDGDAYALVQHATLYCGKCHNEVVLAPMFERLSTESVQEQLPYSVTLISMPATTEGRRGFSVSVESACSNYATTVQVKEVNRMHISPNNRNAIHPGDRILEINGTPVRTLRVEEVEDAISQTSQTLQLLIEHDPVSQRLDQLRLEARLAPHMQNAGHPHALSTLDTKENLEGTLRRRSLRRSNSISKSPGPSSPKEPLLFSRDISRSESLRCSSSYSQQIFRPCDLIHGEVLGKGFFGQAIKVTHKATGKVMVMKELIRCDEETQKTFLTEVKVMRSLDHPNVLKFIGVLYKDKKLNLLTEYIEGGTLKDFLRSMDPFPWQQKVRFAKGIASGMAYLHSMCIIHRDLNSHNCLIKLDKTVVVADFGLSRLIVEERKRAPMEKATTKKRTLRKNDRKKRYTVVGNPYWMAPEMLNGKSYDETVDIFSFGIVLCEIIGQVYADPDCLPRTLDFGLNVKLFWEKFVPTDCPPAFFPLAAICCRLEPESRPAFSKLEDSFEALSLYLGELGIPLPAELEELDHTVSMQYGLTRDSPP
smiles,measurement,setting,value
CC(C)S(=O)(=O)c1ccccc1Nc1nc(Nc2ccc(N3CCN(CCOCCOCCNC(=O)CNc4ccc5c(c4)C(=O)N(C4CCC(=O)NC4=O)C5=O)CC3)cc2)ncc1Cl (centres unmarked) [LT2.49],logFC of BLK,[1]; experiment wp016,−1.613
same,logFC of BLK (P51451),[1]; Experiment wp016,−1.613
same,logFC CDK6,"[2]; CDK6 (Q00534), direction down, experiment wp016",−0.6531
same,logFC of CDK6 (Q00534),"[2]; Experiment wp016, down",−0.6531
same,logFC LIMK2,"[3]; LIMK2 (P53671), down",−0.9573
same,logFC of LIMK2,[3]; LIMK2 P53671,−0.9573
same,logFC of FER (P16591-1),"[4]; Experiment wp016, down",−2.467
same,logFC of FER,"[4]; FER P16591-1, experiment wp016",−2.467
same,logFC,[5]; CDK9 (P50750-2) protein abundance,−0.6469
same,logFC PRKAA1 (Q13131-2),"[5]; Experiment wp016, direction down",−0.3739
same,logFC LCK,[5]; experiment wp016,−0.6186
same,logFC CDK9 (P50750-2),[5]; experiment wp016,−0.6469
same,logFC PRKAA1 (Q13131-2),[5]; experiment wp016,−0.3739
same,logFC LCK (P06239-3),[5]; experiment wp016,−0.6186
same,logFC,[6],−0.3336
same,logFC,[6]; direction down,−0.3336
same,logFC CDK4 (P11802),[7],−0.8985
same,logFC AAK1,"[8]; AAK1 (Q2M218-1), down",−1.778
same,logFC AAK1,"[8]; AAK1, accession Q2M218-1, direction of change down",−1.778
same,logFC,"[9]; CDK7 (P50613) protein abundance, degrader vs DMSO, down",−1.014
same,logFC CDK7,"[9]; CDK7 P50613, experiment wp016",−1.014
same,logFC,[10],−0.5079
same,logFC BMP2K,[10],−0.5079
same,logFC of CDK17,[11]; Accession Q00537,−0.7544
same,logFC CDK17 (Q00537),[11]; direction of change down,−0.7544
same,logFC,"[12]; PTK2B (Q14289-1) protein abundance, degrader vs DMSO, down",−3.365
same,logFC PTK2B,"[12]; PTK2B, accession Q14289-1, experiment wp016, direction of change down",−3.365
same,logFC CDK13,[13]; Accession Q14004-1,−0.3839
same,logFC CDK13 (Q14004-1),[13],−0.3839
same,logFC ITK (Q08881),[14],−2.212
same,logFC ITK (Q08881),[14]; direction of change down,−2.212
same,logFC AURKA (O14965),[15],−1.853
same,logFC of CDK5,[16]; Accession Q00535,−0.8608
same,logFC CDK5 (Q00535),[16]; direction of change down,−0.8608
same,logFC CDK2 (P24941-1),[17],−0.5177
same,logFC CDK2 (P24941-1),[17]; direction of change down,−0.5177
same,logFC WEE1 (P30291-1),[18],−1.314
same,logFC CDK12,[19]; Accession Q9NYV4-1,−0.868
same,logFC CDK12,[19]; CDK12 (Q9NYV4-1),−0.868
Nc1ncnc2c1c(-c1ccc(Oc3ccccc3)cc1)nn2[C@@H]1CCCN(C(=O)CCCN2CCN(CCNC(=O)CCOCCOCCNc3cccc4c3C(=O)N(C3CCC(=O)NC3=O)C4=O)CC2)C1 (some centres unmarked) [DD.03.119],logFC of BLK,[1]; experiment wp047,−1.859
same,logFC of BLK (P51451),[1]; Experiment wp047,−1.859
same,logFC FYN,"[5]; Accession P06241-2, experiment wp047",−0.8669
same,logFC of SRC,"[5]; Accession P12931-2, experiment wp047",−0.6128
same,logFC FYN,"[5]; FYN P06241-2, experiment wp047",−0.8669
same,logFC LCK,[5]; experiment wp047,−1.787
same,logFC,[5]; SRC (P12931-2) protein abundance,−0.6128
same,logFC ABL2 (P42684-5),[5]; experiment wp047,−1.047
same,logFC of ABL2 (P42684-5),[5]; experiment wp047,−1.047
same,logFC LCK (P06239-3),[5]; experiment wp047,−1.787
same,logFC,[20],−2.272
same,logFC,[20]; direction down,−2.272
same,logFC of CSK,[21]; Accession P41240,−1.786
same,logFC CSK,"[21]; CSK (P41240), down",−1.786
